Converted amounts (≈) assume the structure as drawn. Where two headings read alike, the source gives them in different places.

Experimental findings from patent publication US5010005A, “Bio-oxidation of high alcohols in non-aqueous reaction media” (priority 1989, dated 1991) are described below.

Series [1] can be described thus: Solubility in water. It is filed as physicochemical.
Series [2] has as its target T1, alcohol oxidase (Komagataella phaffii, UniProt P04842).
T1 construct: purchased Provesta Corp. (Bartlesville, Oklahoma)
T1 sequence (P04842 2-663 limits assumed): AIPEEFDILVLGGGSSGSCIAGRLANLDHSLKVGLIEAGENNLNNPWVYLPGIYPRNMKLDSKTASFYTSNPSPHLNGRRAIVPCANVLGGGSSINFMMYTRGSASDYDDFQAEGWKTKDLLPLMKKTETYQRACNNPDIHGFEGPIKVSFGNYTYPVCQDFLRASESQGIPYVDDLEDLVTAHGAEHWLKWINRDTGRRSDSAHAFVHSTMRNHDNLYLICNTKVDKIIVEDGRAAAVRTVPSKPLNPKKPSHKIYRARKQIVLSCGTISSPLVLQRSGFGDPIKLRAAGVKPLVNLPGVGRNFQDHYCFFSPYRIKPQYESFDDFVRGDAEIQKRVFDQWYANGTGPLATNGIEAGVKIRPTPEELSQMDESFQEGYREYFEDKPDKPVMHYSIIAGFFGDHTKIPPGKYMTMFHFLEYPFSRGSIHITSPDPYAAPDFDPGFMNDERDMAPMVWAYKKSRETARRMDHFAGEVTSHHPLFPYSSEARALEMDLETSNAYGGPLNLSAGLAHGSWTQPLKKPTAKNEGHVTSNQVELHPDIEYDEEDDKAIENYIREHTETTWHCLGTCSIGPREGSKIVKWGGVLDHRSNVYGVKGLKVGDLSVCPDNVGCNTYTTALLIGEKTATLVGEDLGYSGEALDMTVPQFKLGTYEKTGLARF
As to the kind of experiment: Inhibition of alcohol oxidase by benzaldehyde. In kind it is biochemical, Pichia pastoris. The text has this: Similar potent inhibition of yeast alcohol dehydrogenase by aliphatic and aromatic aldehydes including benzaldehyde has been reported (W.R. Bowen et al, J. Chem. Tech. Biotechnol. 36: 191-196, 1986). In two phase systems, the degree to which alcohol oxidase is inhibited by benzaldehyde is controlled by the concentration of the inhibitor, the concentration of the enzyme, the solvent chosen as a reaction fluid, and on the volumetric ratio of the two phases present. The effect of the first two factors is obvious, however the latter two parameters play an important role in determining the effective concentration of the inhibitor; that concentration to which the biocatalyst is exposed, potentially causing inhibition. Benzaldehyde partitions differently between the two phases depending on the solvent chosen. For example, using toluene as an extractant benzaldehyde was efficiently stripped from the aqueous phase (Table 2) and was, therefore, less able to inhibit alcohol oxidase. It is possible that this would result in improved yields over extended reaction times, despite the sacrifice in terms of initial reaction rate.

Series [3] is described as follows: Partitioning of benzyl alcohol and benzaldehyde between 0.1 M phosphate buffer and solvent. It is filed as physicochemical. The method, then:
The partitioning of benzyl alcohol and benzaldehyde between 0.1 M phosphate buffer and each solvent used were measured as follows: benzyl alcohol (10 g/L) and benzaldehyde (10 g/L) were dissolved in each of the solvents of interest. Ten millilitres of each solvent were then dispensed into a test tube containing 10 ml of 0.1 M phosphate buffer (pH 8). The tubes were capped, vortexed, and the mixture was allowed to equilibrate for 1 hr at 30° C. Both phases were then assayed for benzaldehyde and benzyl alcohol as described above. […]

By solubility is commonly meant the dissolved amount per volume that the medium holds. The compound `O=Cc1ccccc1` [benzaldehyde] returned a solubility in series [1] of around 3000 µg/mL (≈ 28.3 mM). Further, the “Inhibition of alcohol oxidase” value in series [2] is on record as “very strongly inhibited”; in series [2] (listed as Benzaldehyde), “extremely potent inhibitor”. The “Partition Coefficient (Corg /Caq)” value is recorded as 69.4 in series [3] (Ether / 0.1 M phosphate buffer pH 8, 30° C.); 62.0 in series [3] (Ethylacetate / 0.1 M phosphate buffer pH 8, 30° C.); 15.4 in series [3] (Hexane / 0.1 M phosphate buffer pH 8, 30° C.); 100 in series [3] (Toluene / 0.1 M phosphate buffer pH 8, 30° C.).
